Columns and labels:
tau = assay: Tau phosphorylation, AT8 immunoblot; assay type: cell-based; conditions: 100 μM; to the control level
Text: Following the experimental design of Sadot et al., J.Neurochem. […] By linking an M1 agonist to an antioxidant moiety tau phophorylation may be decreased, providing a new therapeutic strategy in a variety of CNS disease states due to combined damage due to oxidative stress and tau hyperphosphorylation.

[1] = tested on: rat pheochromocytoma cells transfected with the M1 mAChR
ApoE = ApoE synthesis and secretion in rat primary type 1 astrocytes; assay type: cell-based; conditions: 96 hrs; 0.1 nM
Description: Primary cultures of type 1 astrocytes were derived from the cortex of Sprague Dawley rats. The compounds tested were dissolved in the culture media and added to cells for 24, 48, 72 and 96 hrs. Media was then removed and kept frozen until ApoE protein levels were evaluated by immunoblot analysis as described in Poirier et al Neuroscience 55: 81-90 (1993).

[2] = Morris water maze in C57BL/10SnJ (small hippocampus) vs C57BL6J mice; assay type: in vivo; conditions: for reversal test, swimming speed: normal hippocampi mice, AF150(S) 0.5 mg/kg, AF267B 1 mg/kg
Description: C57BL/10SnJ (B10) mice were selected due to their small hippocampi and decreased number of hippocampal pyramidal neurons; the cell loss seemed to be associated with poor spatial learning.
Each group of mice was randomly divided into 7 treatment groups (n=12-14/group). […] All tested compounds and saline were administered once a day for 4 days before starting the behavioral testing, and then for the duration of the 5-day experiment, 30 minutes before testing.
Training: Each mouse was trained for four consecutive days, four trials (one block) per day, in which the platform position remained constant and was located in the center of the southeast quadrant of the pool. Within each block of four trials, each mouse started at each of the starting locations, but the sequence of locations was randomly selected. A trial consisted of placing a mouse by hand into the water facing the wall of the pool at one of four starting locations, north, south, east or west, around the pool's perimeter. Escape latency (the time to find the platform), path length (the distance traveled by the mouse) and speed (the swimming rate of the mouse) were recorded on each trial by the monitoring system.
For each mouse, the path length, escape latency, and swimming speed of the four trials on each of the 4 training days were grouped into blocks (one block for each day). […] Specific comparisons were performed, using the simple main effects contrasts analysis, which is specifically suited for testing significant interactions.
Transfer test. During trial No. 17, on the fourth day, the platform was entirely removed from the pool (a probe trial). In this trial, the mouse was placed into the water for a limited period (30 s), and its spatial bias was measured by recording the relative distribution of escape latency and path length over the four quadrants of the pool.
Reversal test. During trials 18-21, on the fifth day, the platform position was changed to the northwest quadrant, opposite to the training quadrant Thus, during reversal learning, the platform location was moved relative to the configuration of objects within the room, but the pool occupied the same place within the room throughout the entire experiment. Testing of the […] and measures taken were the same as in training.
For each mouse, the escape latency, path length and swimming speed of the reversal test (trials No. 18-21) were grouped into one block.

[3] = small hippocampus mice, AF compounds 0.5 and 1 mg/kg i.p., rivastigmine, nicotine 1 mg/kg i.p.

Compound: CCC1SC2(CCN(C)CC2)N(C(=O)CCc2c[nH]c3ccccc23)C1=O (racemic) [AF704, 2-Ethyl-4(3-1H-indol-3-yl-propionyl)-8-methyl-1-thia-4,8-diaza-spiro[4.5]decan-3-one]
- phosphorylated tau (AT8) (tau): induce dephosphorylation of tau proteins
- β-A25-35-induced cytotoxicity [1]: more effective than carbachol and AF267B

Compound: CC1OC2(CS1)CN1CCC2CC1 (stereo not shown) [AF102B, reference compound]
- inhibition of ApoE production (ApoE): inactive

Compound: CC[C@@H]1SC2(CCN(C)CC2)N(S(=O)(=O)c2ccc(F)cc2)C1=O [AF700, (S)-2-Ethyl-4-(4-fluoro-benzenesulfonyl)-8-methyl-1-thia-4,8diaza-spiro[4.5]decan-3-one]
- β-A25-35-induced cytotoxicity [1]: more effective than carbachol and AF267B

Compound: CCC1SC2(CCN(C)CC2)N(CCc2c[nH]c3ccccc23)C1=O (stereo not shown) [AF703, 2-Ethyl-4-[2-(1H-indol-3-yl)ethyl]-8-methyl-1-thia-4,8-diaza-spiro[4.5]decan-3-one]
- β-A25-35-induced cytotoxicity [1]: more effective than carbachol and AF267B

Compound: CN1CCCC1c1cccnc1 (stereo not shown) [nicotine, reference compound]
- reversal test, swimming speed [2]: significantly decreased
- training, escape latency ([2]; normal hippocampus mice): degraded the performance
- training, swimming speed ([2]; normal hippocampus mice): significantly decreased the swimming speed
- reversal test, escape latency ([2]; normal hippocampus mice, AF150(S) at 0.5 mg/kg): no significant effect
- training, swimming speed ([2]; small hippocampus mice): Neither rivastigmine nor nicotine had any significant effect
- transfer test, spatial bias ([2]; small hippocampus mice): only a partial spatial bias
- training, escape latency [2, 3]: no improving effect

Compound: CCN(C)C(=O)Oc1cccc([C@H](C)N(C)C)c1 [rivastigmine, reference compound]
- reversal test, swimming speed [2]: significantly decreased
- training, swimming speed ([2]; normal hippocampus mice): significantly decreased the swimming speed
- training, swimming speed ([2]; small hippocampus mice): Neither rivastigmine nor nicotine had any significant effect
- transfer test, spatial bias ([2]; small hippocampus mice): complete spatial bias
- training, path length ([2]; small hippocampus mice, AF150(S) both doses, AF267B the higher dose): positively affected the performance
- training, escape latency [2, 3]: positively affected the training performance

Compound: (S)-Ethyl-4-(3-1H-indol-3-yl-propionyl)-8-methyl-1-thia-4,8-diaza-spiro[4.5]decan-3-one [AF704B]
- phosphorylated tau (AT8) (tau): induce dephosphorylation of tau proteins

Reference: US7439251B2, “Methods and compositions for treatment of central and peripheral nervous system disorders and novel compounds useful therefor” (Israel Institute for Biological Research, priority 2002, dated 2008)
